Reference: the SangsterLogP compilation

Structure (SMILES) | logP
Cc1ccccc1NCc1cnc2nc(N)nc(N)c2c1C | 1.98
Cc1ccc(C)c(NCc2cnc3nc(N)nc(N)c3c2C)c1 | 2.29
Cc1c(CNc2ccc(Cl)c(Cl)c2)cnc2nc(N)nc(N)c12 | 2.06
Cc1c(Cl)cccc1NCc1cnc2nc(N)nc(N)c2c1C | 2.04
Cc1cc(C)cc(NCc2cnc3nc(N)nc(N)c3c2C)c1 | 2.11
Cc1cccc(Cl)c1NCc1cnc2nc(N)nc(N)c2c1C | 2.05
Cc1c(CNc2c(Cl)cccc2Cl)cnc2nc(N)nc(N)c12 | 2
CCOc1ccccc1NCc1cnc2nc(N)nc(N)c2c1C | 2.07
Cc1c(CNc2cccc(Cl)c2Cl)cnc2nc(N)nc(N)c12 | 2.1

Further lines, results first:

logP | Structure (SMILES)
1.45 | CC(=O)c1ccc(NCc2cnc3nc(N)nc(N)c3c2C)cc1
1.46 | CC(=O)c1cccc(NCc2cnc3nc(N)nc(N)c3c2C)c1
2.03 | Cc1cc(NCc2cnc3nc(N)nc(N)c3c2C)ccc1Cl
2.03 | Cc1c(CNc2ccc(Cl)cc2)cnc2nc(N)nc(N)c12
2.03 | Cc1ccc(NCc2cnc3nc(N)nc(N)c3c2C)cc1Cl
2.02 | Cc1c(CNc2ccccc2)cnc2nc(N)nc(N)c12
